The target of the test is T1, Brunfelsia calycina POD (purified 40-kDa anthocyanin degradation-related peroxidase; BcPrx01 suggested).
T1 construct: native POD purified from petals, close to 40 kDa
Briefly: guaiacol/H2O2 peroxidase activity assay with purified POD, absorbance at […] nm. The class given is biochemical, Brunfelsia pauciflora var. calycina (Brunfelsia calycina).

A word on the IC50: it is the concentration needed to halve the response being measured. Higher therefore signals weaker potency in that assay.

Take `O=C(O[C@@H]1Cc2c(O)cc(O)cc2O[C@H]1c1cc(O)c(O)c(O)c1)c1cc(O)c(O)c(O)c1` [GCG, gallocatechin-3-gallate]: the IC50 stood at 29.7 µM.
Compound `O=C(O[C@@H]1Cc2c(O)cc(O)cc2O[C@@H]1c1ccc(O)c(O)c1)c1cc(O)c(O)c(O)c1` [ECG, epicatechin-3-gallate] returned an IC50 of 21.5 µM.

The values are drawn from article PMC5412285, “Characterization of Active Anthocyanin Degradation in the Petals of Rosa chinensis and Brunfelsia calycina Reveals the Effect of Gallated Catechins on Pigment Maintenance” (International Journal of Molecular Sciences, 2017).
